System: variant F49 of the protease from Bacillus lentus
Assay: Residual proteolytic activity after storage in liquid washing agent (suc-AAPF-pNA)
Format: biochemical
Details: 13 days at 30° C., initial activity = 100%
Excerpt: A liquid washing agent of the following composition served as a baseline washing agent formulation (all indications in percent by weight): 0.3 to 0.5% xanthan, 0.2 to 0.4% antifoaming agent, 6 to 7% glycerol, 0.3 to 0.5% ethanol, 4 to 7% FAEOS (fatty alcohol ether sulfate), 24 to 28% nonionic surfactants, 1 to 2% sodium citrate (dihydrate), 2 to 4% soda, 14 to 16% coconut fatty acids, 0.5% HEDP (1-hydroxyethane-(1,1-diphosphonic acid)), 0 to 0.4% PVP (polyvinylpyrrolidone), 0 to 0.05% optical brightener, 0 to 0.001% dye, remainder demineralized water.
The aminophthalic acid 4-aminophthalic acid (Alfa Aesar) was incorporated into this formulation as the component stabilizing the hydrolytic enzyme, as indicated below (see Table 1, indications in this regard in wt %). Comparison formulations that contained either boric acid as an enzyme stabilizer, or no enzyme stabilizer, served as controls. The protease used was variant F49 of the protease from Bacillus lentus in accordance with WO 95/23221 (quantity used: 1 wt % active substance).
After storage, the respective residual proteolytic activity was determined by way of the release of the para-nitroaniline (pNA) chromophore from the suc-L-Ala-L-Ala-L-Pro-L-Phe-p-nitroanilide substrate (suc-AAPF-pNA). The protease cleaves the substrate and releases pNA. The release of pNA causes an increase in extinction at 410 nm, the time course of which is an indication of enzymatic activity (see Del Mar et al., 1979). Measurement occurred at a temperature of 25° C., at pH 8.6 and at a wavelength of 410 nm. The measurement time was 5 min, with a measurement interval from 20 s to 60 s. The proteolytic activity values obtained are indicated in Table 1 below, based on an initial activity of 100% when storage began.

[1] = 1.0 wt % stabilizer in baseline liquid washing agent

SMILES | residual proteolytic activity after storage [1] | residual proteolytic activity after storage (0.1 wt % stabilizer in baseline liquid washing agent) | residual proteolytic activity after storage (0.5 wt % stabilizer in baseline liquid washing agent) | residual proteolytic activity after storage (2.0 wt % stabilizer in baseline liquid washing agent)
OB(O)O [boric acid, reference compound] | 74.9% | – | – | –
Nc1ccc(C(=O)O)c(C(=O)O)c1 [4-aminophthalic acid] | 40.8% | 28.3% | 33.3% | 50.0%
